These results are taken from ChEMBL document CHEMBL1177693, “Antimalarials from nature” (Bioorg Med Chem, 2009).

The structures appear in SMILES notation. Values after ≈ are worked out from the molar mass of the structure shown.

A word on the IC50: it is the concentration that gives 50% inhibition. A word on the EC50: it is the concentration needed to bring the measured effect to its halfway point.

One experiment has as its system Plasmodium falciparum. In words: Antimalarial activity against Plasmodium falciparum. In kind it is functional, organism-based.
Details: not given
Regarding `C=C(COCc1ccc(Br)cc1)[C@@H]1CC[C@]2(C)CC[C@]3(C)[C@H](CC[C@@H]4[C@@]5(C)CC[C@H](OC(=O)CCCCCCC(N)=O)C(C)(C)[C@@H]5CC[C@]43C)[C@@H]12`, the “fold change (FC)” value is 7.

Staying with this experiment, now noted: Plasmodium falciparum.
In turn, `CC1=CC(=O)C[C@@H]2[C@@](C)(CC[C@H](C)CC(=O)O)[C@H](C)C(=O)C[C@@]12C` returned an IC50 of 4.3 µg/mL.
The same measure, in the same setting: as for `COc1cc(O)c(C(=O)CCc2ccccc2)c(O)c1[C@H]1C=C(C)CC[C@@H]1C(C)C`, the figure is 5.64 µM; as for `C=C1C2CC[C@@]3(C)[C@H](c4ccoc4)OC(=O)C[C@]13O[C@H]1CC(=O)C(C)(C)[C@H](CC(=O)OC)[C@@]21C`, 5.9 µg/mL.
Still for that read-out and setting: as for `C[C@@H]1CC[C@H]2C(C)(C)[C@H](O)CC[C@]2(C)[C@@]12Cc1c(O)cc3c(c1O2)COC3=O`, the figure is 0.15 µg/mL.
Consider `COc1cc2c3cc1Oc1c(OC)c(OC)cc4c1[C@H](Cc1ccc(OC)c(c1)-c1cc(ccc1O)C[C@H]3N(C)CC2)N(C)CC4`, for which the concentration for half-maximal inhibition (IC50) was 1.14 µM.
On the same count and under the same terms, as for `C[C@@H]1CC[C@H]2C(C)(C)[C@H](O)CC[C@]2(C)[C@@]12Cc1c(O)cc(C=O)c(C=O)c1O2`, the figure is 0.85 µg/mL.
On to `C=C1C(=O)[C@@]23CC[C@H]4[C@@]5(C)CCC[C@@]4(OC5=O)[C@@]2(C)CC[C@]1(OC)C3`, for which the IC50 was 0.54 µg/mL. This IC50 is about 1.6-fold lower than that of the molecule before.
On the same count and under the same terms, for `COc1cc2c(cc1O)CCN(C)[C@H]2Cc1ccc(Oc2c3c(cc(OC)c2OC)-c2c(OC)c(OC)c(O)c4c2[C@@H](C3)N(C)CC4)cc1` the value was 0.0242 µg/mL; for `COc1cc2c(cc1OC)[C@H](Cc1ccc(Oc3c(O)c(OC)cc4c3C[C@@H]3c5c(c(O)c(OC)c(OC)c5-4)CCN3C)cc1)N(C)CC2`, 0.0102 µg/mL.
As for `COc1cc2c(cc1O)CCN(C)[C@H]2Cc1ccc(Oc2c(O)c(OC)cc3c2C[C@@H]2c4c(cc(OC)c(OC)c4-3)CCN2C)cc1`, the IC50 turned out to be 0.0112 µg/mL.
`CO[C@H]1[C@@H](O)[C@H](O[C@H]2[C@@H](OC)C[C@H](O[C@H]3[C@@H](OC)C[C@@H](O[C@H]4CC[C@@]5(C)C(=CC[C@@H]6[C@@H]5C[C@@H](OC(=O)c5ccccc5)[C@]5(C)[C@@H]([C@H](C)OC(C)=O)CC[C@]65O)C4)O[C@@H]3C)O[C@@H]2C)O[C@H](C)[C@H]1O` returned an IC50 of 6.25 µg/mL.
Still for that read-out and setting: for `CC(=O)Oc1cc(C)c(OC(C)=O)c2c1[nH]c1ccccc12` the value was 1.79 µg/mL; for `C=C1CC[C@@H]2[C@@](C)(COC(=O)/C=C/c3ccc(O)cc3)CCC[C@@]2(C)[C@@H]1CC[C@H](C)CC(=O)O`, 4.3 µg/mL.
Still for that read-out and setting: as for `C=C1C(=O)[C@@]23CC[C@H]4[C@@]5(C)CCC[C@@]4(OC5=O)[C@@]2(C)CC[C@]1(O)C3`, the figure is 0.67 µg/mL; as for `C=C1C(=O)[C@@]23CC[C@H]4[C@@]5(C)CCC[C@@]4(OC5=O)[C@@]2(C)CC[C@@H]1C3`, 1.57 µg/mL; as for `C/C=C(\C)C(=O)O[C@@H]1[C@H]2C(C)=CC(=O)[C@@H](O)[C@]2(C)[C@H]2[C@]3(O)OC[C@@]24[C@@H]1OC(=O)C[C@H]4[C@@H](C)[C@H]3O`, 0.061 µg/mL.
On the same count and under the same terms, as for `C/C1=C\[C@H]2O[C@](C)(CC[C@@H]2[C@@]2(C)CO2)[C@@H](O)CC/C(C)=C/CC1`, the figure is 15 µg/mL.
On to `CC(=O)O[C@@H]1C(=O)c2c(O)cc(O)cc2O[C@@H]1c1ccc(O)cc1`, for which 24.3 µg/mL corresponded to half-maximal inhibition (IC50).
The same measure, in the same setting: for `COc1ccc2c(OC)c3c(C)cc(=O)[nH]c3c(OC)c2c1OC` the value was 42.9 µM.
The same measure, in the same setting: as for `C=C(C)C(=O)O[C@H]1C[C@H](C)C2=CC(=O)[C@](C)(/C=C3/OC(=O)C(COC(C)=O)=C31)O2`, the figure is 1.8 µg/mL; as for `COc1cc2c(cc1O)[C@@H]1C[C@H](C[C@H]3CCCCN31)OC(=O)/C=C\c1ccc(O)c-2c1`, 2.8 µg/mL.
In the case of `C[C@H]1[C@H](O)CCC2=CC(=O)[C@@]3([C@@]4(CO)CO4)O[C@@H]3[C@@]21C`, the EC50 is 0.5 µg/mL (≈ 1.78 µM).
Molecule `O=C1c2ccc(O)cc2O[C@H](c2ccc(O)cc2)[C@H]1[C@@H]1C(=O)c2ccc(O)cc2O[C@H]1c1ccc(O)cc1` yielded a half-maximal inhibitory concentration (IC50) of 6.7 µM. This lies in the single-digit micromolar range.
For the molecule `C=C(CO)[C@@]12O[C@@H]1[C@@]1(C)C(=CC2=O)CC[C@@H](O)[C@@H]1C`, it took 0.32 µg/mL (≈ 1.21 µM) to reach a half-maximal effect (EC50).
As to `C=C[C@@]12COC(=O)C(=C)[C@@H]1[C@H]1OC(=O)[C@@H](C)[C@@H]1[C@@H](OC(=O)C(=C)CO)C2`, the IC50 was 1.1 µg/mL.
Same read-out and setting: as for `COC(=O)/C(=C/C[C@H]1[C@@]2(CC[C@H]3C(C)(C)CCC[C@@]31C)CO2)C1CO1` (some centres not stated), the figure is 4.97 µM.
On the same count and under the same terms, for `C=C(C)C(=O)O[C@@H]1C[C@@]2(C)OC(=CC2=O)/C(CO)=C\[C@H]2OC(=O)C(=C)[C@@H]21` the value was 1.2 µg/mL; for `C=C1C(=O)O[C@@H]2/C=C(/CO)C3=CC(=O)[C@@](C)(C[C@@H](OC(=O)/C(C)=C\C)[C@@H]12)O3`, 0.3 µg/mL.
Same read-out and setting: as for `Cc1cc(O)c2c(c1)[C@@H]([C@H]1O[C@H](OC(=O)c3ccccc3)[C@@H](O)[C@@H](O)[C@@H]1O)c1cccc(O)c1C2=O`, the figure is 2.4 µM; as for `CC1(C)C=Cc2c(ccc(C(=O)/C=C/c3ccc(O)cc3)c2O)O1`, 3.36 µM; as for `COc1ccc2cc1Oc1cc3c(cc1OC)CCN(C)[C@@H]3Cc1ccc(cc1)Oc1c(O)c(OC)cc3c1[C@@H](C2)N(C)CC3`, 0.353 µM.
Turning to `CC1(C)CC[C@]2(C(=O)O)CC[C@]3(C)C(=CC[C@@H]4[C@@]5(C)CC[C@@H](O)C(C)(C)[C@@H]5CC[C@]43C)[C@@H]2C1`, the IC50 was determined as 28.3 µM.
Same read-out and setting: for `CC1(C)C(=O)CC[C@]2(C)[C@H]3CC(O)[C@@H]4[C@@]5(C)CC[C@](O)(C(C)(C)O)[C@H]5[C@@H](O[C@H]5OC[C@@H](O)[C@@H](O)[C@@H]5O)C[C@@]4(C)[C@]3(C)CC[C@@H]12` (mixture of isomers) [GLINOSIDE A] the value was 42.3 µg/mL.
Same read-out and setting: for `C[C@@]12C=C3OC[C@]4(C)C=CC(=O)[C@@](C)([C@@H]34)[C@@]13O[C@H]3C[C@@]1(C)[C@H](C3=CC(O)OC3=O)C[C@H]3O[C@@]321` (mixture of isomers) [TRICHIRUBINE A] the value was 0.3 µg/mL; for `C[C@@]12C=CC(=O)[C@@]3(C)[C@H]1[C@@H](OC2)[C@@H](OC(=O)c1ccccc1)[C@@]1(C)C2=CC[C@@H](C4=CC(O)OC4=O)[C@]2(C)C[C@@H]2O[C@]231` (mixture of isomers) [TRICHIRUBINE B], 0.2 µg/mL.
On to `O=C1O[C@@H]2[C@@H](OC(=O)c3cc(O)c(O)c(O)c3-c3c1cc(O)c(O)c3O)[C@H](O)O[C@@H]1COC(=O)c3cc(O)c(O)c(O)c3-c3c(O)c(O)c4oc(=O)c5c(c(O)c(O)c6oc(=O)c3c4c65)-c3c(cc(O)c(O)c3O)C(=O)O[C@@H]21` (racemic) [PUNICALAGIN], for which the IC50 amounted to 27.7 µg/mL. Compared with the last molecule, the IC50 is about 140-fold higher.
Still for that read-out and setting: as for `C=C1C2CC[C@@]3(C)[C@H](c4ccoc4)OC(=O)C[C@]13O[C@H]1CC(=O)C(C)(C)[C@H](C(O)C(=O)OC)[C@@]21C` (some centres not stated) [6-HYDROXYANGOLENSIC ACID METHYL ESTER], the figure is over 20 µg/mL; as for `COC1=C(OC)C(=O)C([C@H]2COc3c(cc(OC)c(OC)c3OC)C2)=CC1=O` [ABRUQUINONE B], 1.5 µg/mL; as for `C=C(C)C(O)Cc1cc(C(=O)/C=C/c2ccc(O)c(CC=C(C)C)c2)c(O)cc1O` (configuration not stated) [BARTERICIN A], 2.15 µM.
On the same count and under the same terms, for `CCCCCCCCCCCCCC1CC(=O)NCCCNCCCCNCCCN1` (configuration not stated) [BUDMUNCHIAMINE L4] the value was 14 µM; for `CCCCCCCCCCCCCCCC1CC(=O)NCCCNCCCCNCCCN1` (configuration not stated) [BUDMUNCHIAMINE L5], 15 µM; for `CC(C)=CCc1c(O)cc2oc3ccc4c(c3c(=O)c2c1O)C=CC(C)(C)O4` [CALOTHWAITESIXANTHONE], 2.7 µg/mL.
Same read-out and setting: for `C=CC(C)(C)c1cc2c(O)c3c(c(C(C)(C)C=C)c2oc1=O)OC(C)(C)C=C3` [CLAUSARIN] the value was 0.1 µg/mL.
`COc1cc2c(=O)c3c(O)c(C/C=C(\C)CCC=C(C)C)c(O)cc3oc2cc1O` [COWAXANTHONE] came in with an IC50 of 1.5 µg/mL. Against the preceding molecule, the IC50 is about 15-fold higher.
The molecule `Cc1c(O)cc2c3c1OC(C)(C)CC3c1ccc(O)c(O)c1CC2` (stereo not drawn) [DEMETHYLRACEMOSOL] came in with an EC50 of 2 µg/mL (≈ 6.13 µM).
In turn, `C=CC(C)(C)c1c2c(c(OC)c3ccc(=O)oc13)C=CC(C)(C)O2` [DENTATIN] yielded an IC50 of 8.5 µg/mL.
Still for that read-out and setting: as for `CC[C@H](C)[C@@H]([C@@H](CC(=O)N1CCC[C@H]1[C@H](OC)[C@@H](C)C(=O)N[C@@H](Cc1ccccc1)c1nccs1)OC)N(C)C(=O)[C@@H](NC(=O)[C@H](C(C)C)N(C)C)C(C)C` [DOLASTATIN-10], the figure is 0.0001 µM; as for `C=C1C([C@@]2(C)C=CC(=O)C(C)(C)[C@@H]2[C@H](O)C(=O)OC)CC[C@@]2(C)[C@H](c3ccoc3)OC(=O)C[C@]12O` (some centres not stated) [DOMESTICULIDE A], over 20 µg/mL.
Molecule `C=C1C([C@@]2(C)C=CC(=O)C(C)(C)[C@@H]2[C@H](OC(C)=O)C(=O)OC)CC[C@@]2(C)[C@H](c3ccoc3)OC(=O)C[C@]12O` (some centres not stated) [DOMESTICULIDE B] had an IC50 of 3.2 µg/mL.
Still for that read-out and setting: as for `C=C1[C@@H](O)[C@@]2(O)OC[C@]34[C@H]2[C@@]2(C)[C@H](O)C(=O)C=C(C)[C@@H]2C[C@H]3OC(=O)[C@H](O)[C@@]14O` [EURYCOMANONE], the figure is 0.04 µg/mL.
On the same count and under the same terms, as for `NC[C@H](Cl)[C@@H](O)c1c[nH]c(N)n1` [GIRACODAZOLE], the figure is 0.077 µM; as for `C/C(=C\[C@@H](O)[C@H](O)[C@@H](C)C1=CC[C@@]2(C)C[C@@H]3[C@H](C)CC[C@@H]3/C(C(=O)O)=C\C[C@H]12)C(=O)O` [HALOROSELLINIC ACID], 13 µg/mL; as for `C=C1C(=O)O[C@@H]2C[C@@H](C)[C@@H]3C=CC(=O)[C@@]3(C)[C@@H](O)[C@H]12` [HELENALIN], 0.23 µM.
Same read-out and setting: for `COc1cc2c3c(c1O)Oc1ccc(cc1)C[C@@H]1c4c(cc(OC)c(O)c4Oc4ccc(cc4)C[C@H]3N(C)CC2)CCN1C` [ISOCHONDODENDRINE] the value was 0.892 µM.
Take `COc1c2c(cc(O)c1-c1cc(-c3ccc4c(-c5c(O)cc(O)c6c5C[C@@H](C)N[C@@H]6C)c(C)cc(OC)c4c3O)c(O)c3c(OC)cc(C)cc13)C[C@@H](C)N=C2C` [KORUNDAMINE A]: the IC50 was 1.1 µg/mL.
For `C=C1C(=O)O[C@@H]2/C=C(/C)C3=CC(=O)[C@](C)(O3)[C@H](O)[C@@H](OC(=O)CC(C)C)[C@@H]12` [LOBATIN B], the IC50 amounted to 16.5 µM.
